Legend:
Type in all cases: cell-based
SN12C (renal cancer) = assay: NCI-60 SRB cytotoxicity screen; conditions: Homo sapiens, single dose 10 μM, read-out: growth inhibition (GI%)
CAKI-1 (renal cancer) = assay: NCI-60 SRB cytotoxicity screen; conditions: Homo sapiens; CAKI-1, single dose 10 μM; read-out: growth inhibition (GI%)
SK-MEL-5 (melanoma) = assay: NCI-60 SRB cytotoxicity screen; conditions: Homo sapiens; SK-MEL-5, single dose 10 μM; read-out: growth inhibition (GI%)
UO-31 (renal cancer) = assay: NCI-60 SRB cytotoxicity screen; conditions: Homo sapiens; UO-31, single dose 10 μM; read-out: growth inhibition (GI%)
SNB-19 (CNS cancer) = assay: NCI-60 SRB cytotoxicity screen; conditions: Homo sapiens; SNB-19, single dose 10 μM; read-out: growth inhibition (GI%)
[1] = system: NCI-H460 (non-small cell lung cancer); assay: NCI-60 SRB cytotoxicity screen; conditions: Homo sapiens; NCI-H460, single dose 10 μM; read-out: growth inhibition (GI%)
[2] = system: MDA-MB-231/ATCC (breast cancer); assay: NCI-60 SRB cytotoxicity screen; conditions: Homo sapiens, MDA-MB-231, read-out: growth inhibition (GI%);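 note: growth inhibition in percent at a single 10 µM dose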
M14 (melanoma) = assay: NCI-60 SRB cytotoxicity screen; conditions: Homo sapiens; M14, single dose 10 μM; read-out: growth inhibition (GI%)
MCF7 (breast cancer) = assay: NCI-60 SRB cytotoxicity screen; conditions: Homo sapiens; MCF7, single dose 10 μM; read-out: growth inhibition (GI%)
[3] = system: NCI-H322M (non-small cell lung cancer); assay: NCI-60 SRB cytotoxicity screen; conditions: Homo sapiens, single dose 10 μM, read-out: growth inhibition (GI%)
786-0 (renal cancer) = assay: NCI-60 SRB cytotoxicity screen; conditions: Homo sapiens; 786-0, single dose 10 μM; read-out: growth inhibition (GI%)
MOLT-4 (leukemia) = assay: NCI-60 SRB cytotoxicity screen; conditions: Homo sapiens; MOLT-4, single dose 10 μM; read-out: growth inhibition (GI%)
A498 (renal cancer) = assay: NCI-60 SRB cytotoxicity screen; conditions: Homo sapiens; A498, single dose 10 μM; read-out: growth inhibition (GI%)
SW-620 (colon cancer) = assay: NCI-60 SRB cytotoxicity screen; conditions: Homo sapiens; SW-620, single dose 10 μM; read-out: growth inhibition (GI%)
OVCAR-4 (ovarian cancer) = assay: NCI-60 SRB cytotoxicity screen; conditions: Homo sapiens; OVCAR-4, single dose 10 μM; read-out: growth inhibition (GI%)
HCT-116 (colon cancer) = assay: NCI-60 SRB cytotoxicity screen; conditions: Homo sapiens; HCT-116, single dose 10 μM; read-out: growth inhibition (GI%)
[4] = system: HOP-92 (non-small cell lung cancer); assay: NCI-60 SRB cytotoxicity screen; conditions: Homo sapiens; HOP-92, single dose 10 μM; read-out: growth inhibition (GI%)
OVCAR-3 (ovarian cancer) = assay: NCI-60 SRB cytotoxicity screen; conditions: Homo sapiens; OVCAR-3, single dose 10 μM; read-out: growth inhibition (GI%)
HCC-2998 (colon cancer) = assay: NCI-60 SRB cytotoxicity screen; conditions: Homo sapiens; HCC-2998, single dose 10 μM; read-out: growth inhibition (GI%)
[5] = system: NCI-H226 (non-small cell lung cancer); assay: NCI-60 SRB cytotoxicity screen; conditions: Homo sapiens; NCI-H226, single dose 10 μM; read-out: growth inhibition (GI%)
PC-3 (prostate cancer) = assay: NCI-60 SRB cytotoxicity screen; conditions: PC-3, single dose 10 μM; read-out: growth inhibition (GI%)
HL-60(TB) (leukemia) = assay: NCI-60 SRB cytotoxicity screen; conditions: Homo sapiens, single dose 10 μM, read-out: growth inhibition (GI%)
[6] = system: NCI-H23 (non-small cell lung cancer); assay: NCI-60 SRB cytotoxicity screen; conditions: Homo sapiens; NCI-H23, single dose 10 μM; read-out: growth inhibition (GI%)
TK-10 (renal cancer) = assay: NCI-60 SRB cytotoxicity screen; conditions: Homo sapiens; TK-10, single dose 10 μM; read-out: growth inhibition (GI%)
HT29 (colon cancer) = assay: NCI-60 SRB cytotoxicity screen; conditions: Homo sapiens, HT-29; HT29, single dose 10 μM; read-out: growth inhibition (GI%)
SK-MEL-28 (melanoma) = assay: NCI-60 SRB cytotoxicity screen; conditions: Homo sapiens; SK-MEL-28, single dose 10 μM; read-out: growth inhibition (GI%)
MDA-MB-435 (melanoma) = assay: NCI-60 SRB cytotoxicity screen; conditions: Homo sapiens, MDA-MB-435, read-out: growth inhibition (GI%);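 note: growth inhibition in percent at a single 10 µM dose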
SF-539 (CNS cancer) = assay: NCI-60 SRB cytotoxicity screen; conditions: Homo sapiens; SF-539, single dose 10 μM; read-out: growth inhibition (GI%)
[7] = system: MDA-MB-468 (breast cancer); assay: NCI-60 SRB cytotoxicity screen; conditions: Homo sapiens; MDA-MB-468, single dose 10 μM; read-out: growth inhibition (GI%)
Description: (§1) The cytotoxic activity of the synthesized quinoline derivatives was determined by the national cancer institute (NCI, Bethesda, Maryland, USA) against 60 different cancer cell lines at a single high dose (10^−5 M) in the full NCI 60 cell panel using the sulforhodamine B assay for cell viability evaluation. In summary, 5 × 10^3 cells were in 96-well plate and incubated in complete media for 24 h. Cells were treated with 100 μL of media containing each newly synthesized compound. After drug exposure, cells were fixed by replacing media with 150 μL of 10% TCA and incubated at 4 °C for 1 h. The TCA solution was removed, and the cells were washed 5 times with distilled water. Aliquots of 70 μL SRB solution (0.4% w/v) were added and incubated in a dark place at room temperature for 10 min. The plates were washed 3 times with 1% acetic acid and allowed to air-dry overnight. Then, 150 μL of TRIS (10 mM) was added to dissolve protein-bound SRB stain. The absorbance was measured at 540 nm.% Cytotoxicity = [1 − (AVx/AVNC)] × 100where AVx denotes the average absorbance of the sample well and AVNC denotes the average absorbance of the negative control.
The methodology of the NCI anticancer screening has been described in details at (http://www.dtp.nci.nih.gov). The anticancer assay was performed in full NCI 60 cell lines derived from nine tumor subpanels, including leukemia, lung, colon, CNS, melanoma, ovarian, renal, prostate, and breast cancer cell lines.
The cell lines were first cultured for 48 h, after being exposed to a single dosage of the compound. Using the protein-binding dye sulforhodamine B dye, cell proliferation and viability were evaluated (SRB assay). The results were presented for each chemical as GI%. Compound that met NCI criteria for substantial activity were further evaluated using a five-dose experiment. The NCI60 cell lines were treated with the chemicals in this assay at five different concentration levels (0.01, 0.1, 1, 10, and 100 μM).

U251 (CNS cancer) = assay: NCI-60 SRB cytotoxicity screen; conditions: Homo sapiens, U-251; U251, single dose 10 μM; read-out: growth inhibition (GI%)
[8] = system: 60 cancer cell lines (NCI); assay: NCI-60 single-dose screen, overall verdict over the panel; conditions: single dose 10 μM, whole panel
Description: as §1

| SMILES | inhibition at 10 µM (SN12C (renal cancer)) [%] | inhibition at 10 µM (CAKI-1 (renal cancer)) [%] | inhibition at 10 µM (SK-MEL-5 (melanoma)) [%] | inhibition at 10 µM (UO-31 (renal cancer)) [%] | inhibition at 10 µM (SNB-19 (CNS cancer)) [%] | inhibition at 10 µM [1] [%] | inhibition at 10 µM [2] [%] | inhibition at 10 µM (MCF7 (breast cancer)) [%] | inhibition at 10 µM [3] [%] | inhibition at 10 µM (786-0 (renal cancer)) [%] | inhibition at 10 µM (MOLT-4 (leukemia)) [%] | inhibition at 10 µM (A498 (renal cancer)) [%] | inhibition at 10 µM (SW-620 (colon cancer)) [%] | inhibition at 10 µM (OVCAR-4 (ovarian cancer)) [%] | inhibition at 10 µM (HCT-116 (colon cancer)) [%] | inhibition at 10 µM [4] [%] | inhibition at 10 µM (OVCAR-3 (ovarian cancer)) [%] | inhibition at 10 µM (HCC-2998 (colon cancer)) [%] | inhibition at 10 µM [5] [%] | inhibition at 10 µM (PC-3 (prostate cancer)) [%] | further results |
| --- | --- | --- | --- | --- | --- | --- | --- | --- | --- | --- | --- | --- | --- | --- | --- | --- | --- | --- | --- | --- | --- |
| CCc1cccc2cc(C3C=C(c4ccc(OC)c(OC)c4)NC(=S)N3)c(Cl)nc12 (centres unmarked) [Compound 6b, 4-(2-Chloro-8-ethylquinolin-3-yl)-6-(3,4-dimethoxyphenyl)-3,4-dihydropyrimidine-2(1H)-thione] | < 10 | 30.2 | 14.1 | 37.2 | < 10 | < 10 | < 10 | 15.7 | < 10 | < 10 | 53.3 | < 10 | < 10 | 19.9 | 17.2 | < 10 | < 10 | < 10 | 15.4 | < 10 | inhibition at 10 µM (M14 (melanoma)): < 10%; inhibition at 10 µM (HL-60(TB) (leukemia)): 10.7%; inhibition at 10 µM [6]: < 10%; inhibition at 10 µM (TK-10 (renal cancer)): < 10%; inhibition at 10 µM (HT29 (colon cancer)): < 10%; inhibition at 10 µM (SK-MEL-28 (melanoma)): < 10%; inhibition at 10 µM (MDA-MB-435 (melanoma)): < 10%; inhibition at 10 µM (SF-539 (CNS cancer)): < 10%; inhibition at 10 µM [7]: 13.2%; inhibition at 10 µM (U251 (CNS cancer)): < 10% |
| CCc1cccc2cc(-c3cc(-c4ccc(F)cc4)[nH]c(=O)c3C#N)c(Cl)nc12 [Compound 4d, 4-(2-Chloro-8-ethylquinolin-3-yl)-6-(4-fluorophenyl)-2-oxo-1,2-dihydropyridine-3-carbonitrile] | < 10 | 19.5 | 16.8 | 27.9 | < 10 | < 10 | 19.9 | 24.6 | < 10 | < 10 | 15 | < 10 | < 10 | 11 | < 10 | < 10 | < 10 | < 10 | 14.3 | < 10 | inhibition at 10 µM (HL-60(TB) (leukemia)): < 10%; inhibition at 10 µM [6]: 12%; inhibition at 10 µM (TK-10 (renal cancer)): < 10%; inhibition at 10 µM (SK-MEL-28 (melanoma)): < 10%; inhibition at 10 µM (MDA-MB-435 (melanoma)): < 10%; inhibition at 10 µM (SF-539 (CNS cancer)): < 10%; inhibition at 10 µM [7]: < 10%; cytotoxic activity over the cell lines (in words) [8]: mild cytotoxic activity; inhibition at 10 µM (U251 (CNS cancer)): < 10% |
| CCc1cccc2cc(C=CC(=O)c3cc(OC)c(OC)c(OC)c3)c(Cl)nc12 [Compound 3c, 3-(2-Chloro-8-ethylquinolin-3-yl)-1-(3,4,5-trimethoxyphenyl)prop-2-en-1-one] | 42.3 | 38.7 | 39.9 | 45 | 66.4 | 18.4 | 39.5 | 70.9 | 31.1 | 41.7 | 49.9 | < 10 | 65.4 | 42 | 61.6 | 26.8 | > 100 | 63.8 | > 100 | 53.5 | inhibition at 10 µM (M14 (melanoma)): 31.9%; inhibition at 10 µM (HL-60(TB) (leukemia)): 73.5%; inhibition at 10 µM [6]: 27.4%; inhibition at 10 µM (TK-10 (renal cancer)): < 10%; inhibition at 10 µM (HT29 (colon cancer)): 77.4%; inhibition at 10 µM (SK-MEL-28 (melanoma)): 15%; inhibition at 10 µM (MDA-MB-435 (melanoma)): 59.2%; inhibition at 10 µM (SF-539 (CNS cancer)): > 100%; inhibition at 10 µM [7]: 61.1%; inhibition at 10 µM (U251 (CNS cancer)): 78.2% |
| CCc1cccc2cc(-c3cc(-c4ccc(OC)cc4)[nH]c(=O)c3C#N)c(Cl)nc12 [Compound 4a, 4-(2-Chloro-8-ethylquinolin-3-yl)-6-(4-methoxyphenyl)-2-oxo-1,2-dihydropyridine-3-carbonitrile] | < 10 | 34.9 | 13.9 | < 10 | < 10 | < 10 | 10 | 16 | < 10 | 11.4 | 11.9 | < 10 | < 10 | 21.9 | < 10 | 29.8 | < 10 | < 10 | 15.4 | < 10 | inhibition at 10 µM (M14 (melanoma)): < 10%; inhibition at 10 µM (HL-60(TB) (leukemia)): < 10%; inhibition at 10 µM [6]: < 10%; inhibition at 10 µM (TK-10 (renal cancer)): < 10%; inhibition at 10 µM (HT29 (colon cancer)): < 10%; inhibition at 10 µM (SK-MEL-28 (melanoma)): < 10%; inhibition at 10 µM (MDA-MB-435 (melanoma)): < 10%; inhibition at 10 µM (SF-539 (CNS cancer)): < 10%; inhibition at 10 µM [7]: 14%; inhibition at 10 µM (U251 (CNS cancer)): < 10% |
